Data reported in patent US12655126B2, “Imidazole-pyrazole derivatives as antibacterials” (Hoffmann-La Roche Inc., priority 2020, dated 2026).
Structures can show the parent of a compound that is named as a salt. Where two headings read alike, the source gives them in different places.

Test system: Acinetobacter baumannii ATCC17961
Test: Antimicrobial susceptibility testing: 90% growth inhibitory concentration (IC90) determination
Format: cell-based
Details: read-out: ATCC 17961 IC90
Procedure: Antimicrobial Susceptibility Testing:
90% Growth Inhibitory Concentration (IC90) Determination
The in vitro antimicrobial activity of the compounds was determined according to the following procedure:
The assay used a 10-points Iso-Sensitest broth medium to measure quantitatively the in vitro activity of the compounds against Acinetobacter baumannii ATCC17961.
Stock compounds in DMSO were serially twofold diluted (e.g. range from 50 to 0.097 μM final concentration) in 384 wells microtiter plates and inoculated with 49 μl the bacterial suspension in Iso-Sensitest medium to have a final cell concentration of ˜5×10^(5) CFU/ml in a final volume/well of 50 ul/well. Microtiter plates were incubated at 35±2° C.
Bacterial cell growth was determined with the measurement of optical density at λ=600 nm each minutes over a time course of 16 h. Growth inhibition was calculated during the logarithmic growth of the bacterial cells with determination of the concentration inhibiting 50% (IC50) and 90% (IC90) of the growth.
Table 1 provides the 90% growth inhibitory concentrations (IC90) in micromoles per liter of the compounds of present invention obtained against the strain Acinetobacter baumannii ATCC17961.

[1] = Acinetobacter baumannii ATCC17961, Iso-Sensitest broth, growth by OD 600 nm over 16 h, 90% growth inhibitory concentration
[2] = Acinetobacter baumannii, ATCC17961, 16 h

Structure (SMILES)	IC90 [1]	IC90 [2]
COc1ccc(-n2cc(-c3cnc(C(=O)Nc4ccc(C(=O)N5CCN(C(=O)[C@@H]6CC[N+](C)(C)C[C@H]6O)CC5)c(Cl)c4)n3C)c(C(F)(F)F)n2)nc1 [Example B5, N-[3-chloro-4-[4-[(3S,4R)-3-hydroxy-1,1-dimethyl-piperidin-1-ium-4-carbonyl]piperazine-1-carbonyl]phenyl]-5-[1-(5-methoxy-2-pyridyl)-3-(trifluoromethyl)pyrazol-4-yl]-1-methyl-imidazole-2-carboxamide]	0.31 µM	
Cn1c(-c2cn(-c3ccc(N)cn3)nc2C(F)F)cnc1C(=O)Nc1ccc(C(=O)N2CCN(C(=O)C3CC[N+](C)(C)CC3)CC2)c(Cl)c1 [Example A5, 5-[1-(5-amino-2-pyridyl)-3-(difluoromethyl)pyrazol-4-yl]-N-[3-chloro-4-[4-(1,1-dimethylpiperidin-1-ium-4-carbonyl)piperazine-1-carbonyl]phenyl]-1-methyl-imidazole-2-carboxamide; 2,2,2-trifluoroacetate]	0.76 µM	
Cc1ccc(-n2cc(-c3cnc(C(=O)Nc4ccc(C(=O)N5CCN(C(=O)C6CC[N+](C)(C)CC6)CC5)c(Cl)c4)n3C)c(C(F)(F)F)n2)nc1 [Example A4, N-[3-chloro-4-[4-(1,1-dimethylpiperidin-1-ium-4-carbonyl)piperazine-1-carbonyl]phenyl]-1-methyl-5-[1-(5-methyl-2-pyridyl)-3-(trifluoromethyl)pyrazol-4-yl]imidazole-2-carboxamide; formate]	0.25 µM	
Cn1c(-c2cn(-c3ncccn3)nc2C(F)(F)F)cnc1C(=O)Nc1ccc(C(=O)N2CCN(C(=O)C3CC[N+](C)(C)CC3O)CC2)c(Cl)c1 (stereo not drawn) [Example B4, N-[3-chloro-4-[4-(3-hydroxy-1,1-dimethyl-piperidin-1-ium-4-carbonyl)piperazine-1-carbonyl]phenyl]-1-methyl-5-[1-pyrimidin-2-yl-3-(trifluoromethyl)pyrazol-4-yl]imidazole-2-carboxamide; formate]	1.9 µM	
COc1ccc(-n2cc(-c3cnc(C(=O)Nc4ccc(C(=O)N5CCN(C(=O)[C@@H]6C[C@@H](O)C[N+]6(C)C)CC5)c(Cl)c4)n3C)c(C(F)(F)F)n2)nc1 [Example B6, N-[3-chloro-4-[4-[(2S,4R)-4-hydroxy-1,1-dimethyl-pyrrolidin-1-ium-2-carbonyl]piperazine-1-carbonyl]phenyl]-5-[1-(5-methoxy-2-pyridyl)-3-(trifluoromethyl)pyrazol-4-yl]-1-methyl-imidazole-2-carboxamide; formate]	0.36 µM	
CNc1ccc(-n2cc(-c3cnc(C(=O)Nc4ccc(C(=O)N5CCN(C(=O)C6CC[N+](C)(C)CC6)CC5)c(Cl)c4)n3C)c(C(F)(F)F)n2)nc1 [Example E1, N-[3-Chloro-4-[4-(1,1-dimethylpiperidin-1-ium-4-carbonyl)piperazine-1-carbonyl]phenyl]-1-methyl-5-[1-[5-(methylamino)-2-pyridyl]-3-(trifluoromethyl)pyrazol-4-yl]imidazole-2-carboxamide; formate]		0.1 µM
Cc1nc(-n2cc(-c3cnc(C(=O)Nc4ccc(C(=O)N5CCN(C(=O)C6CC[N+](C)(C)CC6)CC5)c(Cl)c4)n3C)c(C(F)(F)F)n2)ccc1N [Example A11, 5-[1-(5-amino-6-methyl-2-pyridyl)-3-(trifluoromethyl)pyrazol-4-yl]-N-[3-chloro-4-[4-(1,1-dimethylpiperidin-1-ium-4-carbonyl)piperazine-1-carbonyl]phenyl]-1-methyl-imidazole-2-carboxamide]	0.23 µM	
COc1ccc(-n2cc(-c3cnc(C(=O)Nc4ccc(C(=O)N5CCN(C(=O)C6CC[N+](C)(C)CC6)CC5)c(Cl)c4)n3C)c(C(F)(F)F)n2)nc1 [Example A1, N-[3-Chloro-4-[4-(1,1-dimethylpiperidin-1-ium-4-carbonyl)piperazine-1-carbonyl]phenyl]-5-[1-(5-methoxy-2-pyridyl)-3-(trifluoromethyl)pyrazol-4-yl]-1-methyl-imidazole-2-carboxamide; formate]		0.095 µM
Cn1c(-c2cn(-c3cc(Cl)c(N)cn3)nc2C(F)(F)F)cnc1C(=O)Nc1ccc(C(=O)N2CCN(C(=O)C3CC[N+](C)(C)CC3)CC2)c(Cl)c1 [Example A12, 5-[1-(5-amino-4-chloro-2-pyridyl)-3-(trifluoromethyl)pyrazol-4-yl]-N-[3-chloro-4-[4-(1,1-dimethylpiperidin-1-ium-4-carbonyl)piperazine-1-carbonyl]phenyl]-1-methyl-imidazole-2-carboxamide]	0.27 µM	
Cn1c(-c2cn(-c3ncccn3)nc2C(F)(F)F)cnc1C(=O)Nc1ccc(C(=O)N2CCN(C(=O)C3CC[N+](C)(CC4CNC4)CC3)CC2)c(Cl)c1 (stereo not drawn) [Example C1, N-[4-[4-[1-(Azetidin-3-ylmethyl)-1-methyl-piperidin-1-ium-4-carbonyl]piperazine-1-carbonyl]-3-chloro-phenyl]-1-methyl-5-[1-pyrimidin-2-yl-3-(trifluoromethyl)pyrazol-4-yl]imidazole-2-carboxamide; formate]		0.41 µM
Cn1c(-c2cn(-c3ccc(C(N)=O)cn3)nc2C(F)(F)F)cnc1C(=O)Nc1ccc(C(=O)N2CCN(C(=O)C3CC[N+](C)(C)CC3)CC2)c(Cl)c1 [Example A2, 6-[4-[2-[[3-chloro-4-[4-(1,1-dimethylpiperidin-1-ium-4-carbonyl)piperazine-1-carbonyl]phenyl]carbamoyl]-3-methyl-imidazol-4-yl]-3-(trifluoromethyl)pyrazol-1-yl]pyridine-3-carboxamide; formate]	0.98 µM	
Cn1c(-c2cn(-c3ccc(N)nn3)nc2C(F)(F)F)cnc1C(=O)Nc1ccc(C(=O)N2CCN(C(=O)C3CC[N+](C)(C)CC3)CC2)c(Cl)c1 [Example K1, 5-[1-(6-Aminopyridazin-3-yl)-3-(trifluoromethyl)pyrazol-4-yl]-N-[3-chloro-4-[4-(1,1-dimethylpiperidin-1-ium-4-carbonyl)piperazine-1-carbonyl]phenyl]-1-methyl-imidazole-2-carboxamide; 2,2,2-trifluoroacetate]		1.6 µM

Second part, led by results:

IC90 [1]	Structure (SMILES)	IC90 [2]
0.22 µM	CNc1ccc(-n2cc(-c3cnc(C(=O)Nc4ccc(C(=O)N5CCN(C(=O)[C@@H]6CC[N+](C)(C)C[C@H]6O)CC5)c(Cl)c4)n3C)c(C(F)(F)F)n2)nc1 [Example E8, N-[3-chloro-4-[4-[(3S,4R)-3-hydroxy-1,1-dimethyl-piperidin-1-ium-4-carbonyl]piperazine-1-carbonyl]phenyl]-1-methyl-5-[1-[5-(methylamino)-2-pyridyl]-3-(trifluoromethyl)pyrazol-4-yl]imidazole-2-carboxamide; formate]	
0.55 µM	Cn1c(-c2cn(-c3ccc(N)cn3)nc2C(F)(F)F)cnc1C(=O)Nc1ccc(C(=O)N2CCN(C(=O)[C@@H]3[C@@H](Oc4ccc(N)cn4)CC[N+]3(C)C)CC2)c(Cl)c1 [Example D14, N-[4-[4-[(2S,3S)-3-[(5-amino-2-pyridyl)oxy]-1,1-dimethyl-pyrrolidin-1-ium-2-carbonyl]piperazine-1-carbonyl]-3-chloro-phenyl]-5-[1-(5-amino-2-pyridyl)-3-(trifluoromethyl)pyrazol-4-yl]-1-methyl-imidazole-2-carboxamide; formate]	
1.3 µM	Cn1c(-c2cn(-c3ccc(N)cn3)nc2C(F)(F)F)cnc1C(=O)Nc1ccc(C(=O)NCC2CCN(C(=O)C3CC[N+](C)(C)CC3)CC2)c(Cl)c1 [Example D12, 5-[1-(5-amino-2-pyridyl)-3-(trifluoromethyl)pyrazol-4-yl]-N-[3-chloro-4-[[1-(1,1-dimethylpiperidin-1-ium-4-carbonyl)-4-piperidyl]methylcarbamoyl]phenyl]-1-methyl-imidazole-2-carboxamide; formate]	
0.37 µM	CNc1ccc(-n2cc(-c3cnc(C(=O)Nc4ccc(C(=O)N5CCN(C(=O)[C@@H]6[C@@H](O)CC[N+]6(C)C)CC5)c(Cl)c4)n3C)c(C(F)(F)F)n2)nc1 [Example E6, N-[3-chloro-4-[4-[(2S,3S)-3-hydroxy-1,1-dimethyl-pyrrolidin-1-ium-2-carbonyl]piperazine-1-carbonyl]phenyl]-1-methyl-5-[1-[5-(methylamino)-2-pyridyl]-3-(trifluoromethyl)pyrazol-4-yl]imidazole-2-carboxamide; formate]	
1.3 µM	COCc1c[nH]nc1-n1cc(-c2cnc(C(=O)Nc3ccc(C(=O)N4CCN(C(=O)C5CC[N+](C)(C)CC5)CC4)c(Cl)c3)n2C)c(C(F)(F)F)n1 [Example K3, N-[3-chloro-4-[4-(1,1-dimethylpiperidin-1-ium-4-carbonyl)piperazine-1-carbonyl]phenyl]-5-[1-[4-(methoxymethyl)-1H-pyrazol-3-yl]-3-(trifluoromethyl)pyrazol-4-yl]-1-methyl-imidazole-2-carboxamide]	
10 µM	Cc1nn(-c2ccc(N)cn2)cc1-c1cnc(C(=O)Nc2ccc(C(=O)N3CCN(C(=O)C4CC[N+](C)(C)CC4)CC3)c(Cl)c2)n1C [Example J3, 5-[1-(5-amino-2-pyridyl)-3-methyl-pyrazol-4-yl]-N-[3-chloro-4-[4-(1,1-dimethylpiperidin-1-ium-4-carbonyl)piperazine-1-carbonyl]phenyl]-1-methyl-imidazole-2-carboxamide; formate]	
